According to patent publication US10479819B2 (priority 2014, dated 2019):
Starred links: 1 amine or outer side, 2 acyl side, 3 side chain; linkers in the order of their positions; H or OH if unused. Non-standard residues stand in square brackets, D forms with d. Residues, ends and D or L forms follow the SMILES beside them. Groups on a side chain read outwards from the residue. *: point of attachment. C18 diacid = O=C(O)CCCCCCCCCCCCCCCCC(=O)*; γGlu = O=C(O)[C@H](CCC(=O)[*:2])N[*:1]; PEG2 = NCCOCCOCCC(=O)O; Aib = CC(C)(N)C(=O)O

Key:
human GLP-1R = target: T1, human GLP-1R (Homo sapiens, UniProt P43220); test: In vitro activity on GLP-1R, CRE-luciferase HEK-293 cells; assay type: cell-based; conditions: for GLP-1R/GCGR: ratio of EC50 GLP-1R to EC50 GCGR
T1 construct: expressed in transfected cells
Procedure: 5000 of HEK-293 cells, which are used in CRE-luciferase system and express human GCGR or GLP-1R stably, were inoculated into 384 well plates according to […] DMEM/10% FBS media/well. […] After incubation, […] of luciferase reagent was added directly to each plate and mixed gently for 2 minutes. The plates were placed into an Elmer Perkin plate reader for reading. Concentration curve of the compound was made by drawing software Prism 5, and the EC50 value was calculated.

[1] = Pharmacokinetic analysis after IV or SC administration in male CD1 mice; conditions: for clinical adverse effect: IV or SC route, male CD1 mice; for Tmax / half-life: mouse, in vivo, iv
Procedure: Pharmacokinetic parameters of the drugs were calculated by methods of model dependence (for data obtained from IV) and model independence (data obtained from SC).

male C57B1/6J mice = test: Oral glucose tolerance test in male C57B1/6J mice; assay type: in vivo; conditions: 250 μg/kg; for AUC of blood glucose in all four OGTT curve periods (0-480 min) compared with carrier (PBS): P<0.05; for effect on oral glucose tolerance: male C57B1/6J mice
Procedure: 12-16 week-old male C57B1/6J mice (Nanjing University model animal research center) were randomly divided into groups 8 in each group, according to similar blood glucose (assessed by the blood samples obtained from the tail tip). After fasting (for 6 hours), the animals were administrated, and about 4 hours later, initial blood samples (fasting blood glucose level) were taken. Subsequently, the animals were administrated with an oral dose of glucose, and then put back into their cages (t=0). Blood glucose was measured at t=15 minutes, t=30 minutes, t=60 minutes, t=90 minutes and t=120 minutes. And then the animals were administrated with an oral dose of glucose again, and blood glucose was tracked until 8 hours.

T1 sequence (P43220 24-463): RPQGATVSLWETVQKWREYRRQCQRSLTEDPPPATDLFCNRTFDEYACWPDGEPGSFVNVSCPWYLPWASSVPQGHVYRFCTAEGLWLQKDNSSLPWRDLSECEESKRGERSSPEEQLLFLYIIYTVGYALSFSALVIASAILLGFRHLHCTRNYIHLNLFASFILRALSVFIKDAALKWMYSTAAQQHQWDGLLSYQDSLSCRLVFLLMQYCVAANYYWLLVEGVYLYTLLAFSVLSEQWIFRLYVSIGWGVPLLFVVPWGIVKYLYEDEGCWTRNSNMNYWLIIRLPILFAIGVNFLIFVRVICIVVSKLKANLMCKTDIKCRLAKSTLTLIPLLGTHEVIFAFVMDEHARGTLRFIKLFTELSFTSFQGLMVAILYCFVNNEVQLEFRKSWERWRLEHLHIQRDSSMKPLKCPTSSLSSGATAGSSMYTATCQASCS

| Compound | GLP-1R/GCGR (human GLP-1R) | clinical adverse effect [1] | Tmax [1] | half-life [1] | AUC of blood glucose in all four OGTT curve periods (0-480 min) compared with carrier (PBS) (male C57B1/6J mice) | effect on oral glucose tolerance (male C57B1/6J mice) | EC50 (human GLP-1R) |
| --- | --- | --- | --- | --- | --- | --- | --- |
| CSCC[C@H](NC(=O)[C@H](CC(C)C)NC(=O)[C@H](Cc1c[nH]c2ccccc12)NC(=O)[C@H](CCC(N)=O)NC(=O)[C@@H](NC(=O)[C@H](Cc1ccccc1)NC(=O)[C@H](CC(=O)O)NC(=O)[C@H](CCC(N)=O)NC(=O)[C@H](C)NC(=O)[C@H](CCCNC(=N)N)NC(=O)[C@H](CCCCNC(=O)CCOCCOCCNC(=O)CCOCCOCCNC(=O)CC[C@H](NC(=O)CCCCCCCCCCCCCCCCC(=O)O)C(=O)O)NC(=O)C(C)(C)NC(=O)[C@H](CC(=O)O)NC(=O)[C@H](CC(C)C)NC(=O)[C@H](Cc1ccc(O)cc1)NC(=O)[C@H](CCCCN)NC(=O)[C@H](CO)NC(=O)[C@H](Cc1ccc(O)cc1)NC(=O)[C@H](CC(=O)O)NC(=O)[C@H](CO)NC(=O)[C@@H](NC(=O)[C@H](Cc1ccccc1)NC(=O)[C@@H](NC(=O)CNC(=O)[C@H](CCC(N)=O)NC(=O)[C@@H](CO)NC(=O)[C@@H](N)Cc1c[nH]cn1)[C@@H](C)O)[C@@H](C)O)C(C)C)C(=O)N[C@@H](CC(N)=O)C(=O)N[C@H](C(=O)NCC(=O)NCC(=O)N1CCC[C@H]1C(=O)N[C@@H](CO)C(=O)N[C@@H](CO)C(=O)NCC(=O)N[C@@H](C)C(=O)N1CCC[C@H]1C(=O)N1CCC[C@H]1C(=O)N1CCC[C@H]1C(=O)N[C@@H](CO)C(N)=O)[C@@H](C)O [Compound 14] | 2.1 |  |  |  |  |  |  |
| CCCCCCCCCCCCCCCC(=O)NCCOCCOCCC(=O)NCCOCCOCCC(=O)NCCCC[C@H](NC(=O)[C@H](CO)NC(=O)[C@H](Cc1ccc(O)cc1)NC(=O)[C@H](CC(=O)O)NC(=O)[C@H](CO)NC(=O)[C@@H](NC(=O)[C@H](Cc1ccccc1)NC(=O)[C@@H](NC(=O)CNC(=O)[C@H](CCC(N)=O)NC(=O)[C@@H](CO)NC(=O)[C@@H](N)Cc1c[nH]cn1)[C@@H](C)O)[C@@H](C)O)C(=O)N[C@@H](CCCCN)C(=O)N[C@@H](CC(C)C)C(=O)N[C@@H](CC(=O)O)C(=O)NC(C)(C)C(=O)N[C@@H](CCCNC(=N)N)C(=O)N[C@@H](CCCNC(=N)N)C(=O)N[C@@H](C)C(=O)N[C@@H](CCC(N)=O)C(=O)N[C@@H](CC(=O)O)C(=O)N[C@@H](Cc1ccccc1)C(=O)N[C@H](C(=O)N[C@@H](CCC(N)=O)C(=O)N[C@@H](Cc1c[nH]c2ccccc12)C(=O)N[C@@H](CC(C)C)C(=O)N[C@@H](CCSC)C(=O)N[C@@H](CC(N)=O)C(=O)N[C@H](C(=O)NCC(=O)NCC(=O)N1CCC[C@H]1C(=O)N[C@@H](CO)C(=O)N[C@@H](CO)C(=O)NCC(=O)N[C@@H](C)C(=O)N1CCC[C@H]1C(=O)N1CCC[C@H]1C(=O)N1CCC[C@H]1C(=O)N[C@@H](CO)C(N)=O)[C@@H](C)O)C(C)C [Compound 15] | 2.5 |  |  |  |  |  |  |
| CSCC[C@H](NC(=O)[C@H](CC(C)C)NC(=O)[C@H](Cc1c[nH]c2ccccc12)NC(=O)[C@H](CCC(N)=O)NC(=O)[C@@H](NC(=O)[C@H](Cc1ccccc1)NC(=O)[C@H](CC(=O)O)NC(=O)[C@H](CCC(N)=O)NC(=O)[C@H](C)NC(=O)[C@H](CCCNC(=N)N)NC(=O)[C@H](CCCNC(=N)N)NC(=O)C(C)(C)NC(=O)[C@H](CC(=O)O)NC(=O)[C@H](CC(C)C)NC(=O)[C@H](CCCCN)NC(=O)[C@H](CCCCNC(=O)CCOCCOCCNC(=O)CCOCCOCCNC(=O)CCCCCCCCCCCCCCCCC(=O)O)NC(=O)[C@H](CO)NC(=O)[C@H](Cc1ccc(O)cc1)NC(=O)[C@H](CC(=O)O)NC(=O)[C@H](CO)NC(=O)[C@@H](NC(=O)[C@H](Cc1ccccc1)NC(=O)[C@@H](NC(=O)CNC(=O)[C@H](CCC(N)=O)NC(=O)[C@@H](CO)NC(=O)[C@@H](N)Cc1c[nH]cn1)[C@@H](C)O)[C@@H](C)O)C(C)C)C(=O)N[C@@H](CC(N)=O)C(=O)N[C@H](C(=O)NCC(=O)NCC(=O)N1CCC[C@H]1C(=O)N[C@@H](CO)C(=O)N[C@@H](CO)C(=O)NCC(=O)N[C@@H](C)C(=O)N1CCC[C@H]1C(=O)N1CCC[C@H]1C(=O)N1CCC[C@H]1C(=O)N[C@@H](CO)C(N)=O)[C@@H](C)O [Compound 16] | 3 |  |  |  |  |  |  |
| CC(C)C[C@H](NC(=O)[C@H](CC(C)C)NC(=O)[C@H](Cc1c[nH]c2ccccc12)NC(=O)[C@H](CCC(N)=O)NC(=O)[C@@H](NC(=O)[C@H](Cc1ccccc1)NC(=O)[C@H](CC(=O)O)NC(=O)[C@H](CCC(N)=O)NC(=O)[C@H](C)NC(=O)[C@H](CCCNC(=N)N)NC(=O)[C@H](CCCNC(=N)N)NC(=O)[C@H](CCC(=O)O)NC(=O)[C@H](CC(=O)O)NC(=O)[C@H](CC(C)C)NC(=O)[C@H](Cc1ccc(O)cc1)NC(=O)[C@H](CCCCN)NC(=O)[C@H](CO)NC(=O)[C@H](CCCCNC(=O)CCOCCOCCNC(=O)CCOCCOCCNC(=O)CC[C@H](NC(=O)CCCCCCCCCCCCCCCCC(=O)O)C(=O)O)NC(=O)[C@H](CC(=O)O)NC(=O)[C@H](CO)NC(=O)[C@@H](NC(=O)[C@H](Cc1ccccc1)NC(=O)[C@@H](NC(=O)CNC(=O)[C@H](CCC(N)=O)NC(=O)C(C)(C)NC(=O)[C@@H](N)Cc1c[nH]cn1)[C@@H](C)O)[C@@H](C)O)C(C)C)C(=O)N[C@@H](CC(=O)O)C(=O)NCC(=O)NCC(=O)N1CCC[C@H]1C(=O)N[C@@H](CO)C(=O)N[C@@H](CO)C(=O)NCC(=O)N[C@@H](C)C(=O)N1CCC[C@H]1C(=O)N1CCC[C@H]1C(=O)N1CCC[C@H]1C(=O)N[C@@H](CO)C(N)=O [Compound 20] (H-H[Aib]QGTFTSDK([PEG2-PEG2-γGlu-C18 diacid])SKYLDERRAQDFVQWLLDGGPSSGAPPPS-NH2) | 0.18 | no clinical adverse effect | ~12 h | 4 to 6 h | significantly decreased | significantly reduced the oral glucose tolerance |  |
| CCCCCCCCCCCCCCCC(=O)N[C@@H](CCC(=O)NCCOCCOCCC(=O)NCCOCCOCCC(=O)NCCCC[C@H](NC(=O)[C@H](CC(=O)O)NC(=O)[C@H](CO)NC(=O)[C@@H](NC(=O)[C@H](Cc1ccccc1)NC(=O)[C@@H](NC(=O)CNC(=O)[C@H](CCC(N)=O)NC(=O)C(C)(C)NC(=O)[C@@H](N)Cc1c[nH]cn1)[C@@H](C)O)[C@@H](C)O)C(=O)N[C@@H](CO)C(=O)N[C@@H](CCCCN)C(=O)N[C@@H](Cc1ccc(O)cc1)C(=O)N[C@@H](CC(C)C)C(=O)N[C@@H](CC(=O)O)C(=O)NC(C)(C)C(=O)N[C@@H](CCCNC(=N)N)C(=O)N[C@@H](CCCNC(=N)N)C(=O)N[C@@H](C)C(=O)N[C@@H](CCC(N)=O)C(=O)N[C@@H](CC(=O)O)C(=O)N[C@@H](Cc1ccccc1)C(=O)N[C@H](C(=O)N[C@@H](CCC(N)=O)C(=O)N[C@@H](Cc1c[nH]c2ccccc12)C(=O)N[C@@H](CC(C)C)C(=O)N[C@@H](CC(C)C)C(=O)N[C@@H](CC(=O)O)C(=O)NCC(=O)NCC(=O)N1CCC[C@H]1C(=O)N[C@@H](CO)C(=O)N[C@@H](CO)C(=O)NCC(=O)N[C@@H](C)C(=O)N1CCC[C@H]1C(=O)N1CCC[C@H]1C(=O)N1CCC[C@H]1C(=O)N[C@@H](CO)C(N)=O)C(C)C)C(=O)O [Compound 21] | 0.23 | no clinical adverse effect | ~12 h | 4 to 6 h | significantly decreased | significantly reduced the oral glucose tolerance |  |
| CC(C)C[C@H](NC(=O)[C@H](CC(C)C)NC(=O)[C@H](Cc1c[nH]c2ccccc12)NC(=O)[C@H](CCC(N)=O)NC(=O)[C@@H](NC(=O)[C@H](Cc1ccccc1)NC(=O)[C@H](CC(=O)O)NC(=O)[C@H](CCC(N)=O)NC(=O)[C@H](C)NC(=O)[C@H](CCCNC(=N)N)NC(=O)[C@H](CCCNC(=N)N)NC(=O)C(C)(C)NC(=O)[C@H](CC(=O)O)NC(=O)[C@H](CC(C)C)NC(=O)[C@H](Cc1ccc(O)cc1)NC(=O)[C@H](CCCCN)NC(=O)[C@H](CO)NC(=O)[C@H](CCCCNC(=O)CCOCCOCCNC(=O)CCOCCOCCNC(=O)CC[C@H](NC(=O)CCCCCCCCCCCCCCCCC(=O)O)C(=O)O)NC(=O)[C@H](CC(=O)O)NC(=O)[C@H](CO)NC(=O)[C@@H](NC(=O)[C@H](Cc1ccccc1)NC(=O)[C@@H](NC(=O)CNC(=O)[C@H](CCC(N)=O)NC(=O)C(C)(C)NC(=O)[C@@H](N)Cc1c[nH]cn1)[C@@H](C)O)[C@@H](C)O)C(C)C)C(=O)N[C@@H](CC(=O)O)C(=O)NCC(=O)NCC(=O)N1CCC[C@H]1C(=O)N[C@@H](CO)C(=O)N[C@@H](CO)C(=O)NCC(=O)N[C@@H](C)C(=O)N1CCC[C@H]1C(=O)N1CCC[C@H]1C(=O)N1CCC[C@H]1C(=O)N[C@@H](CO)C(N)=O [Compound 22] (H-H[Aib]QGTFTSDK([PEG2-PEG2-γGlu-C18 diacid])SKYLD[Aib]RRAQDFVQWLLDGGPSSGAPPPS-NH2) | 0.19 | no clinical adverse effect | ~12 h | 4 to 6 h | significantly decreased | significantly reduced the oral glucose tolerance | 0.06 nM |
| His-Aib-Gln-Gly-Thr-Phe-Thr-Ser-Asp-Lys(PEG2-PEG2-Glu-CO(CH2)14CH3)-Ser-Lys-Tyr-Leu-Asp-Glu-Arg-Arg-Ala-Gln-Asp-Phe-Val-Gln-Trp-Leu-Leu-Asp-Gly-Gly-Pro-Ser-Ser-Gly-Ala-Pro-Pro-Pro-Ser-NH2 [Compound 19] | 0.25 |  |  |  | significantly decreased | significantly reduced the oral glucose tolerance |  |
